# Laboratory results: ChEMBL document CHEMBL5500396, “Discovery, Multiparametric Optimization, and Solid-State Driven Identification of CHF-6550, a Novel Soft Dual Pharmacology Muscarinic Antagonist and β2 Agonist (MABA) for the Inhaled Treatment of Respiratory Diseases” (J Med Chem, 2024)
# Experiments:
# [1] = target: Beta-2 adrenergic receptor (Homo sapiens, UniProt P07550)
# Description: Displacement of [125I]-Cyanopindolol from human beta2 adrenoceptor assessed as inhibition constant incubated for 1 hrs by Microbeta scintillation counter
# [2] = target: Beta-2 adrenergic receptor (Cavia porcellus, UniProt Q8K4Z4); test: Agonist activity at beta2 adrenoceptor in male albino Dunkin-Hartley guinea pig trachea assessed as inhibition of histamine induced smooth muscle contraction
# [3] = test system: Trachea; test: Inhibition of carbachol-induced smooth muscle contraction in male albino Dunkin-Hartley guinea pig trachea; conditions: Cavia porcellus, read-out: pIC50 (converted)
# [4] = target: Muscarinic acetylcholine receptor M3 (Homo sapiens, UniProt P20309)
# Description: Displacement of Scopolamine methyl chloride,[N-methyl-3H] from human muscarinic M3 receptor assessed as inhibition constant incubated for 2 hrs by Microbeta scintillation counter
# [5] = target: Muscarinic acetylcholine receptor M3 (Cavia porcellus, UniProt Q8VH26); test: Antagonist activity at M3 receptor in male albino Dunkin-Hartley guinea pig trachea assessed as inhibition of carbachol-induced smooth muscle contraction in presence of propranolol
# [6] = in vitro; conditions: guinea pig, hepatocytes
# Description: Metabolic stability in guinea pig hepatocytes assessed as clearance measured per 10^6 cells at 1 uM incubated for 90 mins by LC-MS/MS analysis
# [7] = in vitro; conditions: human, lung S9 fraction
# Description: Stability in human lung S9 fraction assessed as half-life at 1 uM incubated for 60 mins by LC-MS/MS analysis
# [8] = in vitro; conditions: human, plasma
# Description: Stability in human plasma assessed as half-life at 5 uM incubated for 120 mins by LC-MS/MS analysis
# [9] = in vitro; conditions: rat, hepatocytes
# Description: Metabolic stability in rat hepatocytes assessed as clearance measured per 10^6 cells at 1 uM incubated for 90 mins by LC-MS/MS analysis
# [10] = in vitro; conditions: human, hepatocytes
# Description: Metabolic stability in human hepatocytes assessed as clearance measured per 10^6 cells at 1 uM incubated for 90 mins by LC-MS/MS analysis
# [11] = in vitro; conditions: rat, lung S9 fraction
# Description: Stability in rat lung S9 fraction assessed as half-life at 1 uM incubated for 60 mins by LC-MS/MS analysis
# [12] = in vitro; conditions: rat, plasma
# Description: Stability in rat plasma assessed as half-life at 5 uM incubated for 120 mins by LC-MS/MS analysis
# [13] = in vitro; conditions: guinea pig, plasma
# Description: Stability in guinea pig plasma assessed as half-life at 5 uM incubated for 120 mins by LC-MS/MS analysis
# [14] = in vitro; conditions: guinea pig, lung S9 fraction
# Description: Stability in guinea pig lung S9 fraction assessed as half-life at 1 uM incubated for 60 mins by LC-MS/MS analysis
# [15] = species on record: Cavia porcellus; test: animal or person; conditions: albino Dunkin-Hartley, 1 h, read-out: INH
# Description: Inhibition of acetylcholine induced bronchoconstriction in male albino Dunkin-Hartley guinea pig model at 3 nmol/kg, IT(Intratracheal) preadministered with compound followed by acetylcholine addition at 5 to 30 mins in presence of ICI-118551 and measured 1 hrs post compound treatment relative to control
# [16] = test system: Cavia porcellus; test: Inhibition of histamine induced bronchoconstriction in male albino Dunkin-Hartley guinea pig model at 3 nmol/kg, IT(Intratracheal) preadministered with compound followed by histamine addition at 5 to 30 mins and measured 1 hrs post compound treatment relative to control; conditions: read-out: INH
# [17] = Protein binding in human plasma at 5 uM incubated for 4 hrs by LC-MS/MS analysis
# [18] = test system: Cavia porcellus; test: Inhibition of acetylcholine induced bronchoconstriction in male albino Dunkin-Hartley guinea pig model at 3 nmol/kg, IT(Intratracheal) preadministered with compound followed by acetylcholine addition at 5 to 30 mins and measured 1 hrs post compound treatment relative to control; conditions: read-out: INH
# Chain of Beta-2 adrenergic receptor (Homo sapiens, UniProt P07550) (P07550 whole entry): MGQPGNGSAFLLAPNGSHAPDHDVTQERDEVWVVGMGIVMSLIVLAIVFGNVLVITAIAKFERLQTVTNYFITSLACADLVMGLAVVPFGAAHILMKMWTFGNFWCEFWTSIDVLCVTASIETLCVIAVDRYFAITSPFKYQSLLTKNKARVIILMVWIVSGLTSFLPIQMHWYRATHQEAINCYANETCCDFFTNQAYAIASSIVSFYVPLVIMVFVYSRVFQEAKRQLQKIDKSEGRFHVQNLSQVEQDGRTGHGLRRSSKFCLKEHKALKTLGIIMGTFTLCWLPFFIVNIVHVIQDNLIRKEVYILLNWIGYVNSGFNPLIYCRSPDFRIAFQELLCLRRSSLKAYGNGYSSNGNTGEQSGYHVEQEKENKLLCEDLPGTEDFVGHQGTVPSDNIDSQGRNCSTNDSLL
# Chain of Muscarinic acetylcholine receptor M3 (Homo sapiens, UniProt P20309) (P20309 whole entry): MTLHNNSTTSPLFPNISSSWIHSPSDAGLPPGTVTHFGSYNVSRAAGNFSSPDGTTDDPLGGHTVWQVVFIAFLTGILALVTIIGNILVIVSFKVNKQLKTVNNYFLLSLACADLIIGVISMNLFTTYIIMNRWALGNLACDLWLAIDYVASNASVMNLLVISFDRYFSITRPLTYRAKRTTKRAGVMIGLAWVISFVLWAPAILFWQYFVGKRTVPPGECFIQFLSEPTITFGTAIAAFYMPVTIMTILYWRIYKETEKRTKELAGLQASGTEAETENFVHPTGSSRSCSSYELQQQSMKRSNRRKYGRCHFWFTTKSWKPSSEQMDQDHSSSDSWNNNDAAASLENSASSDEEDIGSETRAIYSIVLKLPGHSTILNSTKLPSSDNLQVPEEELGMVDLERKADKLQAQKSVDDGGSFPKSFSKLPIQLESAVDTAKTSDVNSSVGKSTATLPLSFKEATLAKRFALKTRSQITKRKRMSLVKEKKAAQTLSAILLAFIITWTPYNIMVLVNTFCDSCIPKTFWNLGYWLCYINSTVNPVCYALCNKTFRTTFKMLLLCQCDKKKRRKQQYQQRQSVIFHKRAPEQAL
# Chain of Beta-2 adrenergic receptor (Cavia porcellus, UniProt Q8K4Z4) (Q8K4Z4 whole entry): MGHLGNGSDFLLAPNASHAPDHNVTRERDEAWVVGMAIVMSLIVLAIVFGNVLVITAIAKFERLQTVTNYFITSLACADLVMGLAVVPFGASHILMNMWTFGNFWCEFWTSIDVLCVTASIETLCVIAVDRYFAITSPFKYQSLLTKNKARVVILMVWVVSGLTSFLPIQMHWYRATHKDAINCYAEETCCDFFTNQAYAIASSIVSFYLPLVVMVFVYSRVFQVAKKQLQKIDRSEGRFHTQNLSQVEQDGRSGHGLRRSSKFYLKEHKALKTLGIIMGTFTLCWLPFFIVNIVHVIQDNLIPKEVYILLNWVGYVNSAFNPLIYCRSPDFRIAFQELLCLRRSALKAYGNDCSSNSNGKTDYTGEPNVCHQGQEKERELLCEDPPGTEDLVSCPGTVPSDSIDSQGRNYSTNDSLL
# Chain of Muscarinic acetylcholine receptor M3 (Cavia porcellus, UniProt Q8VH26) (Q8VH26 whole entry): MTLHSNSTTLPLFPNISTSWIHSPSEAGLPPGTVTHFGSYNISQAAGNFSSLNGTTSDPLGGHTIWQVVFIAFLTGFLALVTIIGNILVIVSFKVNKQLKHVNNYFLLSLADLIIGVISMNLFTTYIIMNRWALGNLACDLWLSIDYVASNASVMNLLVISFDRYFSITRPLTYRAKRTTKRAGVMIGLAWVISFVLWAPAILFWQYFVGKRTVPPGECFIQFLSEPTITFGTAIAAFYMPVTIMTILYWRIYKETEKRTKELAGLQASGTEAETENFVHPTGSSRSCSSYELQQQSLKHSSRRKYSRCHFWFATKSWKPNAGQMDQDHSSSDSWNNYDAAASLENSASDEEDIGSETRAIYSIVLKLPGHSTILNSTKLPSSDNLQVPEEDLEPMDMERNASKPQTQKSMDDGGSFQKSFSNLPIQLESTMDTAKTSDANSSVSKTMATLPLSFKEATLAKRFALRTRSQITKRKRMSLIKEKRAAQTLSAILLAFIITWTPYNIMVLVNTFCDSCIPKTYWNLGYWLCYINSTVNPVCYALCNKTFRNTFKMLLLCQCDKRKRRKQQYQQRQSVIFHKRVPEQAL
SMILES,Ki [1],IC50 [2],IC50 [3],Ki [4],IC50 [5],"half-life at 2 h, 5 µM [8]","hepatocyte CLint at 1.5 h, 1 µM [9]","hepatocyte CLint at 1.5 h, 1 µM [10]","half-life at 2 h, 5 µM [12]","half-life at 2 h, 5 µM [13]",further results
O=C(NCCCNC[C@H](O)c1ccc(O)c2[nH]c(=O)ccc12)c1ccc(COc2cccc([C@](O)(C(=O)OCC3CCN(Cc4ccccc4)CC3)c3ccccc3)c2)cc1,0.02 nM,0.2 nM,0.126 nM,0.251 nM,0.2 nM,,,,,,
"O=C(c1ccc(OCc2ccc(CNC[C@H](O)c3ccc(O)c4[nH]c(=O)ccc34)cc2)cc1)N1CC(C(=O)OC2CN3CCC2CC3)(c2ccccc2)C1 (single isomer, unassigned)",0.631 nM,1 nM,1 nM,0.316 nM,1 nM,,,,,,
O=C(NCc1ccc(-c2cccc([C@](O)(C(=O)OCC3CCN(Cc4ccccc4)CC3)c3ccccc3)c2)s1)c1ccc(CNC[C@H](O)c2ccc(O)c3[nH]c(=O)ccc23)cc1,2.51 nM,,,0.251 nM,,> 150 min,50 µL/min/1e6 cells,12 µL/min/1e6 cells,> 150 min,13 min,"hepatocyte CLint at 1.5 h, 1 µM [6]: 295 µL/min/1e6 cells; half-life at 1 h, 1 µM [7]: 88 min; half-life at 1 h, 1 µM [11]: 126 min; half-life at 1 h, 1 µM [14]: 126 min"
O=C(NCCCNC[C@H](O)c1ccc(O)c2[nH]c(=O)ccc12)c1ccc(COc2cccc([C@@](O)(C(=O)OCC3CCN(Cc4ccccc4)CC3)c3ccccc3)c2)cc1,0.0316 nM,0.2 nM,0.02 nM,3.16 nM,5.01 nM,,,,,,
O=C(c1ccc(CCNC[C@H](O)c2ccc(O)c3[nH]c(=O)ccc23)cc1)N1CCC(c2cccc([C@](O)(C(=O)OCC3CCN(Cc4ccccc4)CC3)c3ccccc3)c2)CC1,0.398 nM,0.631 nM,,0.0631 nM,2 nM,> 150 min,36 µL/min/1e6 cells,13 µL/min/1e6 cells,32 min,16 min,"half-life at 1 h, 1 µM [7]: 180 min; half-life at 1 h, 1 µM [11]: 148 min; half-life at 1 h, 1 µM [14]: 114 min"
COc1cc(C(=O)NCCCOc2cccc([C@](O)(C(=O)OCC3CCN(Cc4ccccc4)CC3)c3ccccc3)c2)c(F)cc1CNC[C@H](O)c1ccc(O)c2[nH]c(=O)ccc12,0.251 nM,0.1 nM,,0.01 nM,0.794 nM,> 150 min,33 µL/min/1e6 cells,20 µL/min/1e6 cells,55 min,8 min,"half-life at 1 h, 1 µM [7]: 115 min; half-life at 1 h, 1 µM [11]: 111 min; half-life at 1 h, 1 µM [14]: 26 min"
COc1cc(C(=O)NCCCOc2cccc([C@](O)(C(=O)OCC3CCN(Cc4ccccc4)CC3)c3ccccc3)c2)ccc1CNC[C@H](O)c1ccc(O)c2[nH]c(=O)ccc12,0.398 nM,0.0126 nM,,0.02 nM,0.126 nM,> 150 min,60 µL/min/1e6 cells,20 µL/min/1e6 cells,36 min,6 min,"half-life at 1 h, 1 µM [7]: 240 min; half-life at 1 h, 1 µM [11]: 237 min; half-life at 1 h, 1 µM [14]: 29 min"
O=C(NCCCOc1cccc([C@](O)(C(=O)OCC2CCN(C3CCC3)CC2)c2ccccc2)c1)c1ccc(CNC[C@H](O)c2ccc(O)c3[nH]c(=O)ccc23)cc1,0.0251 nM,,,1 nM,,> 150 min,38 µL/min/1e6 cells,6 µL/min/1e6 cells,19 min,119 min,
CN1CCC(COC(=O)[C@](O)(c2ccccc2)c2cccc(OCCCNC(=O)c3ccc(CNC[C@H](O)c4ccc(O)c5[nH]c(=O)ccc45)cc3)c2)CC1,0.0398 nM,,,0.501 nM,,> 150 min,15 µL/min/1e6 cells,< 2 µL/min/1e6 cells,115 min,11 min,
O=C(N[C@@H](c1ccccc1)c1cccc(OCc2ccc(C(=O)NCCCNC[C@H](O)c3ccc(O)c4[nH]c(=O)ccc34)cc2)c1)O[C@@H]1CN2CCC1CC2,0.0126 nM,0.158 nM,0.158 nM,0.1 nM,0.2 nM,,,,,,
O=C(c1ccc(CNC[C@H](O)c2ccc(O)c3[nH]c(=O)ccc23)cc1)N1CC(COc2cccc([C@](O)(C(=O)OCC3CCN(Cc4ccccc4)CC3)c3ccccc3)c2)C1,1 nM,,,1.26 nM,,> 150 min,22 µL/min/1e6 cells,16 µL/min/1e6 cells,50 min,19 min,
CN1CCC(COC(=O)[C@@](O)(c2ccccc2)c2cccc(-c3ccc(CNC(=O)c4ccc(CNC[C@H](O)c5ccc(O)c6[nH]c(=O)ccc56)cc4)s3)c2)CC1,1 nM,,,0.158 nM,,> 150 min,13 µL/min/1e6 cells,3 µL/min/1e6 cells,> 150 min,9 min,
O=C(NCCCCNC[C@H](O)c1ccc(O)c2[nH]c(=O)ccc12)c1ccc(CNC2(C(=O)OCC3CCN(Cc4ccccc4)CC3)CCc3ccccc32)s1 (mixture of isomers; 32),0.0631 nM,0.0251 nM,0.0501 nM,3.98 nM,1 nM,> 150 min,,,,,"half-life at 1 h, 1 µM ([7]; t1/2): 97 min; hepatocyte CLint at 1.5 h, 1 µM ([9]; CLH): 44 µL/min/1e6 cells; hepatocyte CLint at 1.5 h, 1 µM ([10]; CLH): 13 µL/min/1e6 cells; half-life at 1 h, 1 µM ([11]; t1/2): 141 min; half-life at 2 h, 5 µM ([12]; t1/2): 30 min"
COc1cc(C(=O)NCCCOc2cccc([C@](O)(C(=O)OCC3CCN(CC4CC4)CC3)c3ccccc3)c2)c(F)cc1CNC[C@H](O)c1ccc(O)c2[nH]c(=O)ccc12.O=CO.O=CO,0.316 nM,,,0.01 nM,,> 150 min,47 µL/min/1e6 cells,9 µL/min/1e6 cells,15 min,> 150 min,
O=C(NCCCOc1cccc([C@](O)(C(=O)OCC2CCN(C3CCCC3)CC2)c2ccccc2)c1)c1ccc(CNC[C@H](O)c2ccc(O)c3[nH]c(=O)ccc23)cc1,0.02 nM,,,1.58 nM,,> 150 min,51 µL/min/1e6 cells,5 µL/min/1e6 cells,14 min,139 min,
O=C(N[C@@H](c1ccccc1)c1cccc(OCc2cccc(C(=O)NCCCCNC[C@H](O)c3ccc(O)c4[nH]c(=O)ccc34)c2)c1)O[C@H]1CN2CCC1CC2,0.0126 nM,1 nM,0.794 nM,0.0631 nM,0.794 nM,,,,,,
O=C(NCCCCNC[C@H](O)c1ccc(O)c2[nH]c(=O)ccc12)c1ccc(CNC2(C(=O)OCC3CCN(Cc4ccccc4)CC3)CCc3ccccc32)s1 (mixture of isomers; 33),0.0316 nM,0.0631 nM,,2 nM,0.794 nM,,,,,,"inhibition in vivo at 0.003 µmol/kg [15]: 60%; inhibition in vivo at 0.003 µmol/kg [16]: 83%; fraction unbound at 4 h, 5 µM [17]: 0.06; inhibition in vivo at 0.003 µmol/kg [18]: 96%"
O=C(NCCCCNC[C@H](O)c1ccc(O)c2[nH]c(=O)ccc12)c1ccc(CNC2(C(=O)O[C@H]3CN4CCC3CC4)CCc3ccccc32)cc1 (mixture of isomers),0.501 nM,2.51 nM,1.58 nM,0.126 nM,3.16 nM,,,,,,
